From patent EP0262053A2, “Amino-acid derivatives, their preparation and pharmaceutical compositions containing them” (CENTRE NATIONAL DE LA RECHERCHE SCIENTIFIQUE (CNRS), priority 1986, dated 1988)

Key:
[1] = biological target: T1, enképhalinase purifiée du rein de lapin (Oryctolagus cuniculus, UniProt P08049); test: Inhibitory power on enkephalinase (endopeptidase), substrate [3H]D-Ala2-Leu5 enkephalin; format: biochemical; details: purified rabbit kidney enzyme, 20 min at 25°C, Tris-HCl pH 7.4; read-out: Enképhalinase(M), concentrations inhibitrices 50 % (converted)
T1 construct: l'enképhalinase purifiée du rein de lapin; from tissue; host or cells: rabbit kidney
T1 sequence (P08049 1-750): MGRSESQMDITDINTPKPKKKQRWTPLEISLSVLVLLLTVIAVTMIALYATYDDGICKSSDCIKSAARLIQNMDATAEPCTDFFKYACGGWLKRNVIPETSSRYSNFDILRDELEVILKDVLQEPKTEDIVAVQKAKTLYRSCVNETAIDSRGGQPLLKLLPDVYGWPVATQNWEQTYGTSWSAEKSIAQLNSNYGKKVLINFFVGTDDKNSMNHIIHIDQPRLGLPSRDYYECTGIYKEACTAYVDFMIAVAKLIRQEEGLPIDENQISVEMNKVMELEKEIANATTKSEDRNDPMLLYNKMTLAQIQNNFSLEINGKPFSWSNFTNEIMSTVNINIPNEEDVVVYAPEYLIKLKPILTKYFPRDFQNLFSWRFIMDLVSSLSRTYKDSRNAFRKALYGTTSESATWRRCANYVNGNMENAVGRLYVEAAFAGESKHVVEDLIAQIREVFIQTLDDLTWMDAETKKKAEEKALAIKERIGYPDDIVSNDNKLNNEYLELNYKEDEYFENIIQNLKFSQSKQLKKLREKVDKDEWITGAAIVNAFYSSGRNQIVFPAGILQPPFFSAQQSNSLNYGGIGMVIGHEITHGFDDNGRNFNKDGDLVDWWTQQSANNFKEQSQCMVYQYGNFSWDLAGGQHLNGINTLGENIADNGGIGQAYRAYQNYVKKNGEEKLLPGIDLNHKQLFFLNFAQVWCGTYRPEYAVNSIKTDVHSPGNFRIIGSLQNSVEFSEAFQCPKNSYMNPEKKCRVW
Method: Le pouvoir inhibiteur est déterminé sur de l'enképhalinase purifiée du rein de lapin en suivant le protocole décrit dans la littérature (Llorens, C., B. Malfroy, J.C. Schwartz, G. Gacel, B.P. Roques et al., 1982, J. Neurochem. 39, 1081).
Après une pré-incubation de 15 minutes à 25°C, une aliquote de protéines est incubée pendant 20 minutes à 25°C en présence de 20 nanomoles de [³H]D-Ala²-Leu⁵ enképhaline et du produit à tester dans le tampon Tris-HCl (pH 7.4) 50 mM. On arrête la réaction par addition d'HCl 0.2 N. Le métabolite tritié [³H]Tyr-D-Ala-Gly est séparé de la D-Ala²-Leu⁵-enképhaline par chromatographie sur colonne de porapak.
(§1) L'activité des différents produits est exprimée en concentrations inhibitrices 50 %.

[2] = biological target: T2, aminopeptidase purifiée du rein de lapin (Oryctolagus cuniculus, UniProt P15541); test: Inhibitory power on aminopeptidase, substrate [3H]Leu5-enkephalin; format: biochemical; details: purified rabbit kidney enzyme, [3H]Leu5-enkephalin substrate; read-out: Aminopeptidase(M), concentrations inhibitrices 50 % (converted)
T2 construct: purifiée du rein de lapin; from tissue; host or cells: rabbit kidney
T2 sequence (P15541 1-966): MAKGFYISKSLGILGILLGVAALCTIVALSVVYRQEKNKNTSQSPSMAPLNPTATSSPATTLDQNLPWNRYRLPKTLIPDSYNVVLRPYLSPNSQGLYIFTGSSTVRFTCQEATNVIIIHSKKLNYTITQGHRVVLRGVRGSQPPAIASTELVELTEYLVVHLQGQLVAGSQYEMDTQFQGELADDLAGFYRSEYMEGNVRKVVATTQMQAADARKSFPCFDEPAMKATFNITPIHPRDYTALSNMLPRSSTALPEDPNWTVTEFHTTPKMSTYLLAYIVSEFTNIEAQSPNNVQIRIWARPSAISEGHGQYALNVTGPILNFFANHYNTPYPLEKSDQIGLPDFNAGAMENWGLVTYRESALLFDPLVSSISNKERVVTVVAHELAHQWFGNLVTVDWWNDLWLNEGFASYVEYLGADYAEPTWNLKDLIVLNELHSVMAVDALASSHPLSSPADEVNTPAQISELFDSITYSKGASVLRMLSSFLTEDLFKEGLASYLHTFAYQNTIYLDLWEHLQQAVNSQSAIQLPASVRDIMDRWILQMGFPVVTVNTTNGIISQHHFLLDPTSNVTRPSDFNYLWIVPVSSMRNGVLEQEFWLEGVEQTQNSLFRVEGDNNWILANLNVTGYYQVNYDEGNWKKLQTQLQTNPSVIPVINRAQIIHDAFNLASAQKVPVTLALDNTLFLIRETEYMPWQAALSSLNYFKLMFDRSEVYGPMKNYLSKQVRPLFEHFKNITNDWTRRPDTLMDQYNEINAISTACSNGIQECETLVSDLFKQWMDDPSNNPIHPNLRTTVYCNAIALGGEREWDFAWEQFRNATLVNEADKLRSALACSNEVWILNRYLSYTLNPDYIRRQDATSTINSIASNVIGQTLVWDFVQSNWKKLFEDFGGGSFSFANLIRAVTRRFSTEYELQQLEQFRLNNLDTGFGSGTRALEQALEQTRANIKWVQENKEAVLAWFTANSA
Description: Le pouvoir inhibiteur est mesuré sur l'aminopeptidase purifiée du rein de lapin en suivant le protocole décrit dans la littérature (Romaine Bouboutou, Gilles Waksman, Joceyline Deim, Marie-Claude Fournié-Zaluski and Bernard P. Roques, Life Sciences, vol. 35, pp. 1023-1030, 1984).
Le dosage est conduit d'une manière identique au précédent, en utilisant la [³H]Leu⁵-enképhaline à la place de la [³H]D-Ala²-Leu⁵-enképhaline comme substrat.
as §1

[3] = biological target: T3, dipeptidylaminopeptidase purifiée à partir du cerveau de rat (Rattus norvegicus, UniProt O55096); test: Inhibitory power on dipeptidylaminopeptidase, substrate [3H]Leu5-enkephalin; format: biochemical; details: enzyme purified from rat brain, [3H]Leu5-enkephalin substrate; read-out: Dipeptidyla-minopeptida-se(M), concentrations inhibitrices 50 % (converted)
T3 construct: purifiée à partir du cerveau de rat; from tissue; host or cells: rat brain
T3 sequence (O55096 2-738 limits assumed): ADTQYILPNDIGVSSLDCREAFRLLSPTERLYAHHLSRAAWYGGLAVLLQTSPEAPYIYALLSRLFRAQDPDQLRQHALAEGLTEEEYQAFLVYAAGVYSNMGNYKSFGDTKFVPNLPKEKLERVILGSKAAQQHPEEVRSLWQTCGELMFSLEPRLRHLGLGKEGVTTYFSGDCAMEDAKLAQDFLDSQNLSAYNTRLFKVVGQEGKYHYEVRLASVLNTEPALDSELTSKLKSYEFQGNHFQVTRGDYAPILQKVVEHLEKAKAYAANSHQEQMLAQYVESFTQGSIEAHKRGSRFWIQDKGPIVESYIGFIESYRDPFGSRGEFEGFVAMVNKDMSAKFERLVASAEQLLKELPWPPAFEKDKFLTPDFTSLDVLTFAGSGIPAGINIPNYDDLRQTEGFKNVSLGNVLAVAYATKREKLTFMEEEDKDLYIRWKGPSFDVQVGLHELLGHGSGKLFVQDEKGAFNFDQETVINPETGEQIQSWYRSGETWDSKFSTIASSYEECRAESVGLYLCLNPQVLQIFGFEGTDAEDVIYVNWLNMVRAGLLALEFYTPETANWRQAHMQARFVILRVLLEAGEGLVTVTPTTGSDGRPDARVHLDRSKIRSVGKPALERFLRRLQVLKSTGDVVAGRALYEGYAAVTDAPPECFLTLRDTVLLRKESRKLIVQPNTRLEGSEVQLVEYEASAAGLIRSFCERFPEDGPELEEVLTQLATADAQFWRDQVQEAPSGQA
Description: Le pouvoir inhibiteur est mesuré sur la dipeptidylaminopeptidase purifiée à partir du cerveau de rat en suivant le protocole décrit (Romaine Bouboutou, Gilles Waksman, Joceyline Deim, Marie-Claude Fournié-Zaluski and Bernard P. Roques, Life Sciences, vol. 35, pp. 1023-1030, 1984).. On utilise également la [³H]Leu⁵-enképhaline comme substrat.
as §1

[4] = tested on: souris; test: Hot plate test (licking and jump reflex, plate at 55°C); format: in vivo; details: mouse, intracerebroventricular, 50 )g, plate 55°C; for Saut: cut off 240 s
Method: Il concerne le réflexe de lèchement et de saut de la souris sur une plaque chauffée à 55°C selon la méthode de Jacob et coll. (Arch. Int. Pharmacodyn. 122, 287-300, 1959 : 133, 296-300, 1961).
Administrés par voie intracérébroventriculaire chez la souris, les inhibiteurs testés présentent un effet propre à la fois sur le temps de latence du saut et sur celui des lèchements. Ces effets sont reversés par la naloxone (antagoniste morphinique).
Le cut off correspond au moment où la souris est enlevée si elle n'a pas sauté ;

**Q.** “N[N-hydroxyamino) carbonyl-3 benzyl-2 oxo-1 propyl] phényl-2 β-alanine [compound 6]” was tested. Which IC50 [1] did it give?
**A.** 1.5e-09 M

**Q.** And the IC50 [2]?
**A.** 8e-08 M

**Q.** What about the IC50 [3] of the same compound?
**A.** 1e-09 M

**Q.** How did the IC50 [1] turn out when CC(CNC(=O)C(CC(=O)NO)Cc1ccccc1)C(=O)O (stereo not drawn) [compound 3, N[N(hydroxy)aminocarbonyl-3 benzyl-2 oxo-1 propyl] methyl-2 β alanine] was run?
**A.** 2e-09 M

**Q.** And the IC50 [2]?
**A.** 4e-07 M

**Q.** What about the IC50 [3] of the same compound?
**A.** 2e-08 M

**Q.** CC(CC(=O)O)C(=O)N[C@@H](CC(=O)NO)Cc1ccccc1 (stereo partly shown) [compound 9] was tested. Which IC50 [1] did it give?
**A.** 9e-10 M

**Q.** What about the IC50 [2] of the same compound?
**A.** 1e-05 M

**Q.** What about the IC50 [3] of the same compound?
**A.** 1.8e-07 M

**Q.** Which results are given for CC(CC(=O)O)NC(=O)C(CC(=O)NO)Cc1ccccc1 (stereo not drawn) [compound 2, N[N(hydroxy)aminocarbonyl-3 benzyl-2 oxo-1 propyl] methyl-3 β alanine]?
**A.** IC50 [1]: 5e-09 M; IC50 [2]: 3e-07 M; IC50 [3]: 5e-10 M

**Q.** For O=C(O)C[C@H](Cc1ccccc1)NC(=O)[C@@H](CC(=O)NO)Cc1ccccc1 [compound 5, N[N(hydroxy)aminocarbonyl-3 benzyl-2 oxo-1 propyl] benzyl-3 β alanine], which IC50 [1] is on record?
**A.** 2e-09 M

**Q.** What about the IC50 [2] of the same compound?
**A.** 2e-08 M

**Q.** What about the IC50 [3] of the same compound?
**A.** 5e-10 M

**Q.** Which IC50 [1] does the source give for O=C(O)CCNC(=O)C(CC(=O)NO)Cc1ccccc1 (racemic) [compound 1, N[N(hydroxy)amino-carbonyl-3 benzyl-2 Oxo-1 propyl] β-alanine] here?
**A.** 2e-09 M

**Q.** What about the IC50 [2] of the same compound?
**A.** 5e-07 M

**Q.** What about the IC50 [3] of the same compound?
**A.** 3e-08 M

**Q.** What does the source list for CC(CC(=O)NC(CC(=O)NOCc1ccccc1)Cc1ccccc1)C(=O)O (stereo not shown) [compound 10]?
**A.** IC50 [1]: 5e-10 M; IC50 [2]: 4e-06 M; IC50 [3]: 8e-07 M

**Q.** Which results are given for O=C(O)CCC(=O)N[C@@H](CC(=O)NO)Cc1ccccc1 [compound 8, N[carboxy-3 oxo-1 propyl) amino]-3 phenyl-4 (Nʹ[hydroxyamino]-1 oxo-1 butane]?
**A.** IC50 [1]: 1.4e-09 M; IC50 [2]: 1e-05 M; IC50 [3]: 8e-07 M

**Q.** With “Acide [N[N(hydroxyamino) carbonyl-1 phényl-3] propyl]-2 carboxamido-2 cyclohéxanoïque [compound 11]” as the compound, how does the IC50 [1] read?
**A.** 5e-10 M

**Q.** What about the IC50 [2] of the same compound?
**A.** 7e-08 M

**Q.** And the IC50 [3]?
**A.** 2e-09 M

**Q.** And the “Lèchements” value ([4]; cut off 30 s)?
**A.** 30 s

**Q.** And the “Saut” value [4]?
**A.** 240 s

**Q.** For “Acide N[(hydroxy amino carbonyl)-3 benzyl-2 oxo-1 propyl] amino-2 cyclohéxane carboxylique [compound 7]”, which IC50 [1] is on record?
**A.** 4e-09 M

**Q.** What about the IC50 [2] of the same compound?
**A.** 5e-08 M

**Q.** And the IC50 [3]?
**A.** 1.5e-09 M

**Q.** And the “Lèchements (s)” value ([4]; cut off 30 s)?
**A.** 26,2 s

**Q.** What about the “Saut” value [4] of the same compound?
**A.** 240 s
